# In patent US20080241101A1, “Skin vitalizing composition for external use anti-aging preparation” (Shiseido Company, Ltd., priority 2002, published 2008):
# Legend:
# [1] = tested on: artificial skin basement membrane; experiment: Transmission electron microscopy of basement membrane structure directly under the epidermis of artificial skin (Example 1); format: cell-based, human
# Protocol: Collagen gel was obtained by preparing 10 ml of a human dermal fibroblasts (0.3-1×10^5 cell/ml)-suspended collagen solution (using I-AC collagen manufactured by Koken Co., Ltd.) on ice, followed by gelling the collagen in a 60 mm Petri dish at 37° C. The gel was then peeled from the bottom of the dish, the collagen gel was placed on metal, and a glass ring (12 mm inner diameter) was placed over the gel. A 0.4 ml portion of a human foreskin-derived epidermal keratinocyte (1×10^6/ml) suspension (KGM-DMEM (1:1) mixed medium containing 5% fetal bovine serum) was poured into the glass ring while avoiding leakage. The keratinocytes were allowed to adhere in a CO2 incubator overnight, and the ring was removed on the following day. The medium was filled in up to the border of the epidermal layer, and culturing was continued while exposing the epidermal layer to the air, to prepare a multilayered skin model with epidermis having a horny layer. […]
# [2] = tested on: artificial skin (human dermal fibroblast collagen gel with human foreskin-derived epidermal keratinocytes); experiment: Artificial skin culture with additives in the medium, H&E and type IV / type VII collagen immunostaining (Example 1); format: cell-based; details: for staining of type IV and type VII collagen: cytokine (1 ng/ml interleukin-1β, 1 ng/ml TGF-α or 100 ng/ml PDGF) combined with 10 μg/ml aprotinin and 10 μM compound A
# Protocol: Collagen gel was obtained by preparing 10 ml of a human dermal fibroblasts (0.3-1×10^5 cell/ml)-suspended collagen solution (using I-AC collagen manufactured by Koken Co., Ltd.) on ice, followed by gelling the collagen in a 60 mm Petri dish at 37° C. The gel was then peeled from the bottom of the dish, the collagen gel was placed on metal, and a glass ring (12 mm inner diameter) was placed over the gel. A 0.4 ml portion of a human foreskin-derived epidermal keratinocyte (1×10^6/ml) suspension (KGM-DMEM (1:1) mixed medium containing 5% fetal bovine serum) was poured into the glass ring while avoiding leakage. The keratinocytes were allowed to adhere in a CO2 incubator overnight, and the ring was removed on the following day. The medium was filled in up to the border of the epidermal layer, and culturing was continued while exposing the epidermal layer to the air, to prepare a multilayered skin model with epidermis having a horny layer.
# From the 4th day after seeding the epidermal cells, the medium was replaced with medium containing (1) no compound (−compound A), (2) 10 uM of compound A (+compound A), (3) 10 μM of compound A and 10 μg/ml of aprotinin (+compound A+aprotinin), (4) 10 μM of compound A and 1 ng/ml of interleukin-1β (+compound A+IL-1), (5) 10 μM of compound A, 1 ng/ml of interleukin-1β and 10 μg/ml of aprotinin (+compound A+IL-1+aprotinin), (6) 10 μM of compound A and 1 ng/ml of TFG-α (+compound A+TGFα), (7) 10 μM of compound A, 1 ng/ml of TGF-α and 10 μg/ml aprotinin (+compound A, +TGFα+aprotinin), (8) 10 μM of compound A and 100 ng/ml PDGF (+compound A+PDGF) and (9) 10 μm of compound A, 100 ng/ml PDGF and 10 μg/ml of aprotinin (+compound A+PDGF +aprotinin), and every 2-3 days thereafter, the medium was exchanged with a medium containing the same types and same concentrations of […], extracellular matrix production accelerator (cytokines) and serine protease inhibitor, after which culturing was performed for 2 weeks.
# The formed artificial skin was stained with hematoxylin and eosin (H&E) and immunostaining (using anti-type IV collagen antibody and anti-type VII collagen antibody).
# [3] = cytokine (1 ng/ml interleukin-1β, 1 ng/ml TGF-α or 100 ng/ml PDGF) together with 10 μM compound A
Molecule,staining of type IV and type VII collagen [2],"staining of type VII collagen [2, 3]",also measured
"COc1ccc(S(=O)(=O)N(Cc2cccnc2)C(C(=O)NO)C(C)C)cc1.Cl (centres unmarked) [compound A, reference compound]",,,"basement membrane structure directly under the epidermis (transmission electron microscope) ([1]; 10 μM compound A alone): induced formation of the basement membrane; staining of type VII collagen directly under the basal keratinocytes ([2]; 10 μM compound A alone in medium, 2 weeks culture, versus no-addition control): weak but definite staining of type VII collagen"
aprotinin,,,"basement membrane structure directly under the epidermis (transmission electron microscope) ([1]; 10 μg/ml aprotinin added with 10 μM compound A): increased the electron density and accentuated the continuity of the basement membrane; staining of type VII collagen ([2]; 10 μg/ml aprotinin added in addition to 10 μM compound A, 2 weeks culture): further increased"
"interleukin 1 (IL-1): matrix protein production-increasing cytokine, interleukin-1β","clearly concentrated directly under the basal keratinocytes, giving a sharp stained image",particularly accentuated,
transforming growth factor-α (TGF-α): matrix protein production-increasing cytokine,"clearly concentrated directly under the basal keratinocytes, giving a sharp stained image",particularly accentuated,
